From patent US20060035889A1, “Treatment for methamphetamine addiction and reduction of methamphetamine use using serotonin antagonists” (priority 2004, published 2006)

Columns and labels:
[1] = tested on: ventral pallidal neurons; test: Electrophysiology of ventral pallidal neurons, i.v. METH dose-response in chloral hydrate-anesthetized rats; type: in vivo, rat
Description: Based on the biochemical results and because the ventral pallidum contains one of the highest concentrations of 5-HT in the brain, electrophysiological evaluations of this region in rats behaviorally sensitized to METH were conducted (with a 5-day once daily treatment of 2.5 mg/kg). The acute challenge was intravenously administered METH (via a tail vein cannula) as previously used by T. C. Napier's lab ^e.g., [34] where the drug is given in a cumulative dosing fashion such that each dose, administered in 2 min-intervals, essentially doubles the previous dose. METH was tested using a range of 0.06-4.0 mg/kg in saline vehicle. […] Moreover, this approach establishes if systemic administration of METH, in doses that include those producing behavioral sensitization, are sufficient promote sensitized cellular responding and thus allows for direct comparisons of cellular responding to behavioral outcomes. After a 3-day withdrawal, the ability of intravenously administered METH or 1-(2,5-dimethoxy-4-iodophenyl)-2-aminopropane (DOI) to increase ventral pallidal cell firing was enhanced in chloral hydrate-anesthetized rats, as shown by a leftward shift in the dose-response curve with a […] and an increase in response efficacy for both agonists (FIG. 16) and this occurred without any changes in the portion of neurons showing a rate increase or decrease to the acute METH challenge.
Electrophysiological assessment of the ventral pallidum was also conducted 30 days after repeated METH. […] For each experiment, an i.v. METH dose-response curve (METH was tested using a range of 0.06-2.0 mg/kg in saline vehicle) was generated for one ventral pallidal neuron per rat at 30 days withdrawal from repeated METH. Based on the analysis of curves where there was an excitatory effect of i.v. METH on ventral pallidal neurons (171 animals), there was a diminished excitatory effect of i.v. METH in the ventral pallidum of rats that were pretreated with METH only. This is illustrated by both the curves and corresponding Emax data in FIG. 17. This decrease only at long-term withdrawal mirrors the reduction seen in pallidal pCREB only after 14, but not at 3 day withdrawal from repeated METH (see Example III).

[2] = tested on: cocaine seeking behaviors; conditions: rats, cited from earlier work; for maintenance of cocaine self-administration: 0.25-1 mg/kg, cocaine 0.5 mg/kg/infusion iv
[3] = molecular target: T1, 5-HT3 (Homo sapiens, UniProt P46098); conditions: read-out: receptor affinity (Ki) 5-HT3; cited from earlier work
T1 sequence (P46098 24-478): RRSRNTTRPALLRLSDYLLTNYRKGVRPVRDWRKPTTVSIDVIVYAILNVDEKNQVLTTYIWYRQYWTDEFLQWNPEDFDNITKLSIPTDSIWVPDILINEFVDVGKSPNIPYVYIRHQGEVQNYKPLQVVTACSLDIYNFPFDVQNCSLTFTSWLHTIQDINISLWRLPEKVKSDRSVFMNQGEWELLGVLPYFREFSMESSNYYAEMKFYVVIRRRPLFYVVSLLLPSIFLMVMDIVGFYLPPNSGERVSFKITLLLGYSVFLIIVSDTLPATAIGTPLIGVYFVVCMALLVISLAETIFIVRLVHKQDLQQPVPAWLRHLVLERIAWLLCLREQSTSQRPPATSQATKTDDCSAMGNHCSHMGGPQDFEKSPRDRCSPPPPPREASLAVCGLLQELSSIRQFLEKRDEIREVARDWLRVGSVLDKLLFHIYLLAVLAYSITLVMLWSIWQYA

[4] = molecular target: a; conditions: read-out: receptor affinity (Ki) a; cited from earlier work
[5] = tested on: METH-conditioned rats; test: METH-induced conditioned place preference (CPP) with simultaneous motor sensitization; type: in vivo, rat; conditions: single home cage injection 0.03, 0.1 or 1.0 mg/kg SDZ SER 082 24 h before test (FIG. 13)
Source text: The CPP box (Accuscan, Columbus, Ohio) consists of three Plexiglas compartments, each with distinct visual and tactile cues (on one side, patterned floor with object attached and horizontally striped wall; on the opposite side, smooth floor with no object and vertically striped walls; center—uniformly white floor and walls). The center compartment can be separated from the left and right compartments by removable guillotine doors. Motor activity in three dimensional space, and time spent, in each compartment is detected by two sets of photobeams set at different heights from the floor. Drug conditioning is performed by administering METH to the rat while it is in one compartment, and on the alternating day, saline is administered while the rat is confined to the opposite compartment. Confinement was achieved by blocking access to other compartments using the guillotine door. The center compartment is not seen by the rat during conditioning, and all conditioning sessions last for 45 min.
The inventors have determined that the number of METH-pairings, and the dose of METH, dictate the strength of the drug-environment association (i.e., the magnitude of salience attribution). The test for CPP is determined in a METH-free state (i.e., at least 48 hr after that last METH pairing), at which time the rats are placed in the center compartment and allowed free access to all compartments for 30 min, and the time spent in each compartment is the index of preference. The inventors have determined that the number of METH-pairings, and the dose of METH, dictate the strength of the drug-environment association (i.e., the magnitude of salience attribution) and thus the amount of time spent in the compartment previously paired with METH (FIG. 7), as well as persistence of this effect (i.e., how long it lasts; FIG. 8A). METH-induced motor sensitization can be assessed in several ways, including assessing the capacity of the rat to express an enhanced motor response to an acute METH challenge (FIGS. 9 & 10A).
To efficiently apply this approach to testing of 5-HT2A/2C antagonists, we determined that single pairing protocols of the CPP paradigm can be used to predict efficacy outcomes of 5-HT2A/2C antagonists in long-term tests on these drugs evaluating their capacity to nullify the persistent enhanced salience induced by METH. […] Thus, these protocols should help predict the capacity of novel therapeutic targets to halt a common problem of drug relapse, i.e., the ability of re-exposure to drugs like METH to immediately reinstate their abuse.

[6] = molecular target: D2 (Homo sapiens, UniProt P14416); conditions: read-out: receptor affinity (Ki) D2; cited from earlier work
[7] = molecular target: 5-HT2A (Homo sapiens, UniProt P28223); conditions: read-out: receptor affinity (Ki) 5-HT2A; cited from earlier work
[8] = molecular target: D1 (Homo sapiens, UniProt P21728); conditions: read-out: receptor affinity (Ki) D1; cited from earlier work
[9] = molecular target: T2, 5-HT2C (Homo sapiens, UniProt P28335); conditions: read-out: receptor affinity (Ki) 5-HT2C; cited from earlier work
T2 sequence (P28335 33-458): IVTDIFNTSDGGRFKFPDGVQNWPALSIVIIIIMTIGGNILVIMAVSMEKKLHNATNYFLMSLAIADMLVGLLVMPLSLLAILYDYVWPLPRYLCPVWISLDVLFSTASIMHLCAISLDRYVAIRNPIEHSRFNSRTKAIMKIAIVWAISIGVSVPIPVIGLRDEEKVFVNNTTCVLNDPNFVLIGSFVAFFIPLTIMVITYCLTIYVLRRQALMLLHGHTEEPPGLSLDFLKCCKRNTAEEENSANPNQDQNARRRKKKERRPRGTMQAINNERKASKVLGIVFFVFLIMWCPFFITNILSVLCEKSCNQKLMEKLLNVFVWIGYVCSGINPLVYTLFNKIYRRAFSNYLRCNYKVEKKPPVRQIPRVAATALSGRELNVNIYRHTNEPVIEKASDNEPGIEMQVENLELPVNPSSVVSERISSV

[10] = molecular target: T3, 5-HT1A (Homo sapiens, UniProt P08908); conditions: read-out: receptor affinity (Ki) 5-HT1A; cited from earlier work
T3 sequence (P08908 1-422): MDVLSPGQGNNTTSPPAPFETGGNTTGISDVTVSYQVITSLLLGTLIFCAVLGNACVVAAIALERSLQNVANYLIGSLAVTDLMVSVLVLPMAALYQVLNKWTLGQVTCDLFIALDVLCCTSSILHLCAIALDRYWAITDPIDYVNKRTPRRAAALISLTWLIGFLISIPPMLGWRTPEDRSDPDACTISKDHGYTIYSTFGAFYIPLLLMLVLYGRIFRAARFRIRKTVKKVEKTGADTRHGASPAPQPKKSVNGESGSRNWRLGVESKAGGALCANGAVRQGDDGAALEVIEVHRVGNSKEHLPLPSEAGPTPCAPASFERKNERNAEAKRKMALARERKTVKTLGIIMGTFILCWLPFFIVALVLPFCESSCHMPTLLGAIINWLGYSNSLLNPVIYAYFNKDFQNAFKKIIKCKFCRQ

[11] = tested on: METH-sensitized rats; test: Reversal of METH-induced behavioral sensitization by 5-HT2A/2C antagonists (motor activity after acute METH challenge); type: in vivo, rat; conditions: ketanserin 1 mg/kg once daily M-F 3 weeks; 1 mg/kg METH challenge w/d day 30/31
Source text: Automation of observational evaluations was accomplished using computerized small animal monitors (AccuScan Instr. Inc., Columbus, Ohio). […] One feature of drug-induced behavioral sensitization is heterogeneity of motor responses and the AccuScan monitors quantify numerous behavioral indices. This is a critical point for the motor profile is exquisitely related to METH dose, the drug history of the rat and observation time. After 3- or 31-days of withdrawal from repeated METH injections, rats were allowed to achieve baseline motor activity with a 30 min habituation period, challenged with 1 mg/kg sc METH and monitored for 90 min.
Multiple 5-HT2A/2C antagonists with differing pharmacological profiles were tested for their ability to ameliorate METH-induced behavioral sensitization when administered after sensitization has developed. […] The doses were selected based on the antagonists' ability to block 5-HT2A- and 5-HT2C-mediated activity and their pharmacokinetic profiles.

[12] = tested on: cocaine-induced behavioral sensitization; conditions: given in acute withdrawal period from cocaine dosing; cited from earlier work

Sequence of D2 (P14416 whole entry): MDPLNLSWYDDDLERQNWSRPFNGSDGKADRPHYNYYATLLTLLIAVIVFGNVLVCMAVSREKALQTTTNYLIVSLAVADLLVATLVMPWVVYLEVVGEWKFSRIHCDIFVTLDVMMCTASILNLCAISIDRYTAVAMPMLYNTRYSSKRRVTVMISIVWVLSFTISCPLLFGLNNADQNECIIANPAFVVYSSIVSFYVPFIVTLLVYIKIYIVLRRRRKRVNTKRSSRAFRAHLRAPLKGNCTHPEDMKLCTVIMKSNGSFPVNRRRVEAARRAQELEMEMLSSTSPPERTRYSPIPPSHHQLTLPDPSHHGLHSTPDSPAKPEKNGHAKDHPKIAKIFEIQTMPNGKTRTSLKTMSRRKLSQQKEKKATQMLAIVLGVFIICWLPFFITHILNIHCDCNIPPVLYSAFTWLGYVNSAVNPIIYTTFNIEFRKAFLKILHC
Sequence of D1 (P21728 whole entry): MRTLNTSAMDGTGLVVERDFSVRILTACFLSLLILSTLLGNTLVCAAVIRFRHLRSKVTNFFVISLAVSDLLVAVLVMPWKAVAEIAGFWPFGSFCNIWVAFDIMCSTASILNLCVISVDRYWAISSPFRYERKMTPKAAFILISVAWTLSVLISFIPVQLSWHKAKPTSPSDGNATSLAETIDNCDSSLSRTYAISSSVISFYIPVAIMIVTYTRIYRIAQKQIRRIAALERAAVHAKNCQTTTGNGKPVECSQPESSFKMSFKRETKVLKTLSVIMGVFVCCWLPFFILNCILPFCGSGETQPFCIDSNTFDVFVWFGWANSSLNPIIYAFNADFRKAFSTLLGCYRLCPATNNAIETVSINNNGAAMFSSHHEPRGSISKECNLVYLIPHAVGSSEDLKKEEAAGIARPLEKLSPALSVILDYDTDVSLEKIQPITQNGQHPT
Sequence of 5-HT2A (P28223 whole entry, species assumed): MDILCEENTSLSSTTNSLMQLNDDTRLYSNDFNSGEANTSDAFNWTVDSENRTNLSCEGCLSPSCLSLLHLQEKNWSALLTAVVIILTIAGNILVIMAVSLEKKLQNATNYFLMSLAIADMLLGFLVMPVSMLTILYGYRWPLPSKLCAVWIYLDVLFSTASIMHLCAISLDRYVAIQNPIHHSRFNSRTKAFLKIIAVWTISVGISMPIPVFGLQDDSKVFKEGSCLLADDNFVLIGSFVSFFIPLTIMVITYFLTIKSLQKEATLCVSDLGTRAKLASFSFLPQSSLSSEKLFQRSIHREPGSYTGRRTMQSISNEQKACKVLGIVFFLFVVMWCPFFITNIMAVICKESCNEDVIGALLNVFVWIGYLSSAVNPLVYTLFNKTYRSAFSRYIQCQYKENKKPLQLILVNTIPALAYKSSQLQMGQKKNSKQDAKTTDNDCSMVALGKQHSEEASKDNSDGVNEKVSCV

In the case of CN[C@@H](C)Cc1ccccc1 [METH, Methamphetamine], the “Emax of Firing Rate Increases of Acute Meth” value ([1]; repeated METH days 1-5, then vehicle, P < 0.05 vs saline + vehicle) is reported as 161% ± 16% (n = 11).

In the case of CN1CCC2CN3CCc4cccc(c43)C2C1 (stereo not drawn) [SDZ SER 082, 4,5,7a,8,9,10,11,11 a,-octahydro-7H-10-methylindolo[1,7,bc][2,6]-napthyridine], the “maintenance of cocaine self-administration” value [2] is listed as “Neither SR 46349B (0.25-1 mg/kg) nor SDZ SER 082 (0.25-1 mg/kg) altered”, the “cue- and cocaine priming-induced reinstatement” value ([2]; cocaine priming 10 mg/kg ip or cue) is listed as “failed to alter” and the Ki [3] is listed as greater than 1 µM. The Ki [4] was greater than 1 µM, the “METH-induced CPP after single pairing of 1.0 METH” value [5] was “reverses METH-induced CPP in a dose-dependent fashion” and the Ki [6] was greater than 1 µM. For the same compound, the Ki [7] was 0.6 µM, the Ki [8] was greater than 1 µM and the Ki [9] was 0.015 µM. The Ki [10] was 0.8 µM.

In the case of CN(C)CCO/N=C(/C=C/c1ccc(O)cc1)c1ccccc1F.CN(C)CCO/N=C(/C=C/c1ccc(O)cc1)c1ccccc1F.O=C(O)/C=C/C(=O)O [SR 46349B], the “maintenance of cocaine self-administration” value [2] is listed as “Neither SR 46349B (0.25-1 mg/kg) nor SDZ SER 082 (0.25-1 mg/kg) altered”.

For O=C(c1ccc(F)cc1)C1CCN(CCn2c(=O)[nH]c3ccccc3c2=O)CC1 [ketanserin], the “effect on horizontal activity and vertical movements in METH-pretreated group” value [11] is given as “appeared to potentiate the effect”, the “locomotor effects on saline-pretreated animals (acute METH challenge)” value [11] is given as “did not produce any locomotor effects” and the “established behavioral sensitization to cocaine” value [12] is given as “reverse the established behavioral sensitization”. The “Emax of Firing Rate Increases of Acute Meth” value ([1]; METH days 1-5, then antagonist, tested 31 days after last METH) was 177% ± 18% (n = 4).

In the case of CN1CCN2c3ccccc3Cc3ccccc3C2C1 (stereo not drawn) [mianserin], the “established behavioral sensitization to cocaine” value [12] is given as “reverse the established behavioral sensitization”.

For Cc1nccn1CC1CCc2c(c3ccccc3n2C)C1=O (stereo not drawn) [ondansetron], the “established behavioral sensitization to cocaine” value [12] is listed as “reverse the established behavioral sensitization”.
